Measured values as given in patent US8952024B2, “Herbicidal pyrimidone derivatives” (E I du Pont de Nemours and Company, priority 2009, dated 2015).

Experiments:
Assay in all cases: Test B pre-/postemergence plant response
Format in all cases: in vivo
[1] = tested on: corn (Zea mays)
Outline: (§1)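 Visually scored on a 0 to 100 scale after 13 to 15 days in greenhouse versus controls. Treatments were preemergence on seeded loam/sand soil and postemergence on 1- to 4-leaf plants.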

[2] = tested on: Italian ryegrass (Lolium multiflorum)
Outline: as §1

[3] = tested on: johnsongrass (Sorghum halepense)
Outline: as §1

[4] = tested on: cocklebur (Xanthium strumarium); conditions: Postemergence
Outline: as §1

[5] = tested on: goosegrass (Eleusine indica)
Outline: as §1

[6] = tested on: blackgrass (Alopecurus myosuroides); conditions: for Blackgrass plant response rating (0 to 100 scale): postemergence, 0 is no effect, 100 is complete control
Outline: as §1

[7] = tested on: large crabgrass (Digitaria sanguinalis)
Outline: as §1

[8] = tested on: kochia (Kochia scoparia); conditions: Postemergence
Outline: as §1

[9] = tested on: green foxtail (Setaria viridis)
Outline: as §1

[10] = tested on: velvetleaf (Abutilon theophrasti)
Outline: as §1

[11] = tested on: giant foxtail (Setaria faberii)
Outline: as §1

[12] = tested on: morningglory (Ipomoea coccinea)
Outline: as §1

[13] = tested on: soybean (Glycine max)
Outline: as §1

[14] = tested on: ragweed (common ragweed, Ambrosia elatior)
Outline: as §1

[15] = Postemergence, 31 g ai/ha, 0 to 100 scale (0 no effect, 100 complete control)
[16] = Postemergence, 125 g ai/ha, scale 0 to 100 (0 no effect, 100 complete control)
[17] = Postemergence, 250 g ai/ha, scale 0 to 100 (0 no effect, 100 complete control), 13 to 15 days
[18] = 31 g ai/ha, 0 to 100 scale (0 no effect, 100 complete control)
[19] = 125 g ai/ha, scale 0 to 100 (0 no effect, 100 complete control)
[20] = 250 g ai/ha, scale 0 to 100 (0 no effect, 100 complete control), 13 to 15 days
[21] = Postemergence, 62 g ai/ha, scale 0 to 100 (0 no effect, 100 complete control)
[22] = Postemergence, 125 g ai/ha, scale 0 (no effect) to 100 (complete control), 13 to 15 days
[23] = Preemergence, 31 g ai/ha, scale 0 to 100 (0 no effect, 100 complete control)
[24] = Preemergence, 62 g ai/ha, scale 0 to 100 (0 no effect, 100 complete control)
[25] = Preemergence, 125 g ai/ha, scale 0 to 100, 0 no effect, 100 complete control
[26] = Preemergence, 250 g ai/ha, 0 to 100 scale

Cc1ccc(Cl)cc1-n1c(-c2cccc(F)c2)ncc(C(=O)C2=C(O)CCCC2=O)c1=O [Compound 184]
Plant response rating, Corn [1, 15]: 80 | Plant response rating, Corn [1, 16]: 85 | Plant response rating, Corn [1, 17]: 98 | Plant response rating, Ryegrass, Italian [2, 15]: 20 | Plant response rating, Ryegrass, Italian [2, 16]: 45 | Plant response rating, Ryegrass, Italian [2, 17]: 60 | Plant response rating, Johnsongrass [3, 15]: 100 | Plant response rating, Johnsongrass [3, 16]: 100 | Plant response rating, Johnsongrass [3, 17]: 100 | Plant response rating, Cocklebur [4, 18]: 100 | Plant response rating, Cocklebur [4, 19]: 100 | Plant response rating, Cocklebur [4, 20]: 100 | Plant response rating, Goosegrass [5, 15]: 100 | Plant response rating, Goosegrass [5, 16]: 100 | Plant response rating, Goosegrass [5, 17]: 100 | Blackgrass plant response rating (0 to 100 scale) ([6]; 62 g ai/ha, 13 to 15 days): 35 | Plant response rating, Blackgrass [6, 15]: 30 | Plant response rating, Blackgrass [6, 16]: 40 | Plant response rating, Blackgrass [6, 17]: 50 | Plant response rating, Crabgrass, Large [7, 15]: 100 | Plant response rating, Crabgrass, Large [7, 16]: 100 | Plant response rating, Crabgrass, Large [7, 17]: 100 | Plant response rating, Kochia [8, 18]: 0 | Plant response rating, Kochia [8, 19]: 5 | Plant response rating, Kochia [8, 20]: 10 | Plant response rating, Foxtail, Green [9, 15]: 30 | Plant response rating, Foxtail, Green [9, 16]: 85 | Plant response rating, Foxtail, Green [9, 17]: 98 | Plant response rating, Velvetleaf [10, 15]: 85 | Plant response rating, Velvetleaf [10, 16]: 100 | Plant response rating, Velvetleaf [10, 17]: 100 | Plant response rating, Foxtail, Giant [11, 15]: 98 | Plant response rating, Foxtail, Giant [11, 16]: 100 | Plant response rating, Foxtail, Giant [11, 17]: 100 | Plant response rating, Morningglory [12, 15]: 40 | Plant response rating, Morningglory [12, 16]: 100 | Plant response rating, Morningglory [12, 17]: 100 | Plant response rating, Soybean [13, 15]: 98 | Plant response rating, Soybean [13, 16]: 100 | Plant response rating, Soybean [13, 17]: 100

CCCn1c(-c2cccc(Cl)c2)ncc(C(=O)C2=C(O)CCCC2=O)c1=O [Compound 190]
Plant response rating, Corn [1, 15]: 0 | Plant response rating, Corn [1, 16]: 40 | Plant response rating, Corn [1, 17]: 65 | Plant response rating, Ryegrass, Italian [2, 15]: 0 | Plant response rating, Ryegrass, Italian [2, 16]: 20 | Plant response rating, Ryegrass, Italian [2, 17]: 30 | Plant response rating, Johnsongrass [3, 15]: 60 | Plant response rating, Johnsongrass [3, 16]: 75 | Plant response rating, Johnsongrass [3, 17]: 80 | Plant response rating, Cocklebur [4, 18]: 40 | Plant response rating, Cocklebur [4, 19]: 95 | Plant response rating, Cocklebur [4, 20]: 100 | Plant response rating, Goosegrass [5, 15]: 70 | Plant response rating, Goosegrass [5, 16]: 80 | Plant response rating, Goosegrass [5, 17]: 98 | Blackgrass plant response rating (0 to 100 scale) ([6]; 62 g ai/ha, 13 to 15 days): 30 | Plant response rating, Blackgrass [6, 15]: 5 | Plant response rating, Blackgrass [6, 16]: 35 | Plant response rating, Blackgrass [6, 17]: 40 | Plant response rating, Crabgrass, Large [7, 15]: 60 | Plant response rating, Crabgrass, Large [7, 16]: 80 | Plant response rating, Crabgrass, Large [7, 17]: 90 | Plant response rating, Kochia [8, 18]: 0 | Plant response rating, Kochia [8, 19]: 98 | Plant response rating, Kochia [8, 20]: 98 | Plant response rating, Foxtail, Green [9, 15]: 25 | Plant response rating, Foxtail, Green [9, 16]: 45 | Plant response rating, Foxtail, Green [9, 17]: 70 | Plant response rating, Velvetleaf [10, 15]: 100 | Plant response rating, Velvetleaf [10, 16]: 100 | Plant response rating, Velvetleaf [10, 17]: 100 | Plant response rating, Foxtail, Giant [11, 15]: 70 | Plant response rating, Foxtail, Giant [11, 16]: 90 | Plant response rating, Foxtail, Giant [11, 17]: 95 | Plant response rating, Morningglory [12, 15]: 40 | Plant response rating, Morningglory [12, 16]: 85 | Plant response rating, Morningglory [12, 17]: 100 | Plant response rating, Soybean [13, 15]: 80 | Plant response rating, Soybean [13, 16]: 95 | Plant response rating, Soybean [13, 17]: 98

CCc1ccccc1-n1c(-c2ccccc2)ncc(C(=O)C2=C(O)CCCC2=O)c1=O [Compound 255]
Plant response rating, Ragweed [14, 15]: 50 | Plant response rating, Ragweed [14, 21]: 90 | Plant response rating, Ragweed [14, 22]: 95 | Plant response rating, Ragweed [14, 17]: 95 | Plant response rating, Ragweed [14, 23]: 65 | Plant response rating, Ragweed [14, 24]: 75 | Plant response rating, Ragweed [14, 25]: 85 | Ragweed plant response rating [14, 26]: 100 | Plant response rating, Corn [1, 15]: 60 | Plant response rating, Corn [1, 21]: 75 | Plant response rating, Corn [1, 22]: 85 | Plant response rating, Corn [1, 17]: 85 | Plant response rating, Corn [1, 23]: 0 | Plant response rating, Corn [1, 24]: 0 | Plant response rating, Corn [1, 25]: 0 | Corn plant response rating [1, 26]: 0 | Plant response rating, Ryegrass, Italian [2, 15]: 10 | Plant response rating, Ryegrass, Italian [2, 21]: 30 | Plant response rating, Ryegrass, Italian [2, 22]: 30 | Plant response rating, Ryegrass, Italian [2, 17]: 80 | Plant response rating, Ryegrass, Italian [2, 23]: 0 | Plant response rating, Ryegrass, Italian [2, 24]: 0 | Plant response rating, Ryegrass, Italian [2, 25]: 10 | Ryegrass, Italian plant response rating [2, 26]: 30 | Plant response rating, Johnsongrass [3, 15]: 80 | Plant response rating, Johnsongrass [3, 21]: 85 | Plant response rating, Johnsongrass [3, 22]: 90 | Plant response rating, Johnsongrass [3, 17]: 95 | Plant response rating, Johnsongrass [3, 23]: 0 | Plant response rating, Johnsongrass [3, 24]: 60 | Plant response rating, Johnsongrass [3, 25]: 75 | Johnsongrass plant response rating [3, 26]: 98 | Plant response rating, Goosegrass [5, 15]: 90 | Plant response rating, Goosegrass [5, 21]: 90 | Plant response rating, Goosegrass [5, 22]: 95 | Plant response rating, Goosegrass [5, 17]: 98 | Plant response rating, Goosegrass [5, 23]: 80 | Plant response rating, Goosegrass [5, 24]: 98 | Plant response rating, Goosegrass [5, 25]: 100 | Goosegrass plant response rating [5, 26]: 100 | Plant response rating, Blackgrass [6, 15]: 5 | Plant response rating, Blackgrass [6, 21]: 5 | Plant response rating, Blackgrass [6, 22]: 10 | Plant response rating, Blackgrass [6, 17]: 60 | Plant response rating, Blackgrass [6, 23]: 0 | Plant response rating, Blackgrass [6, 24]: 20 | Plant response rating, Blackgrass [6, 25]: 40 | Blackgrass plant response rating [6, 26]: 60 | Plant response rating, Crabgrass, Large [7, 15]: 85 | Plant response rating, Crabgrass, Large [7, 21]: 85 | Plant response rating, Crabgrass, Large [7, 22]: 90 | Plant response rating, Crabgrass, Large [7, 17]: 95 | Plant response rating, Crabgrass, Large [7, 23]: 80 | Plant response rating, Crabgrass, Large [7, 24]: 95 | Plant response rating, Crabgrass, Large [7, 25]: 100 | Crabgrass, Large plant response rating [7, 26]: 100 | Plant response rating, Kochia [8, 18]: 10 | Plant response rating, Kochia ([8]; 62 g ai/ha, scale 0 to 100 (0 no effect, 100 complete control)): 15 | Plant response rating, Kochia ([8]; 125 g ai/ha, scale 0 (no effect) to 100 (complete control), 13 to 15 days): 15 | Plant response rating, Kochia [8, 20]: 65 | Plant response rating, Foxtail, Green [9, 15]: 85 | Plant response rating, Foxtail, Green [9, 21]: 90 | Plant response rating, Foxtail, Green [9, 22]: 90 | Plant response rating, Foxtail, Green [9, 17]: 90 | Plant response rating, Foxtail, Green [9, 23]: 0 | Plant response rating, Foxtail, Green [9, 24]: 80 | Plant response rating, Foxtail, Green [9, 25]: 80 | Foxtail, Green plant response rating [9, 26]: 100 | Plant response rating, Velvetleaf [10, 15]: 95 | Plant response rating, Velvetleaf [10, 21]: 98 | Plant response rating, Velvetleaf [10, 22]: 98 | Plant response rating, Velvetleaf [10, 17]: 100 | Plant response rating, Velvetleaf [10, 23]: 80 | Plant response rating, Velvetleaf [10, 24]: 95 | Plant response rating, Velvetleaf [10, 25]: 98 | Velvetleaf plant response rating [10, 26]: 100 | Plant response rating, Foxtail, Giant [11, 15]: 95 | Plant response rating, Foxtail, Giant [11, 21]: 98 | Plant response rating, Foxtail, Giant [11, 22]: 98 | Plant response rating, Foxtail, Giant [11, 17]: 100 | Plant response rating, Foxtail, Giant [11, 23]: 15 | Plant response rating, Foxtail, Giant [11, 24]: 45 | Plant response rating, Foxtail, Giant [11, 25]: 55 | Foxtail, Giant plant response rating [11, 26]: 98 | Plant response rating, Morningglory [12, 15]: 75 | Plant response rating, Morningglory [12, 21]: 85 | Plant response rating, Morningglory [12, 22]: 85 | Plant response rating, Morningglory [12, 17]: 100 | Plant response rating, Morningglory [12, 23]: 40 | Plant response rating, Morningglory [12, 24]: 55 | Plant response rating, Morningglory [12, 25]: 65 | Morningglory plant response rating [12, 26]: 90 | Plant response rating, Soybean [13, 15]: 95 | Plant response rating, Soybean [13, 21]: 95 | Plant response rating, Soybean [13, 22]: 100 | Plant response rating, Soybean [13, 17]: 100 | Plant response rating, Soybean [13, 23]: 0 | Plant response rating, Soybean [13, 24]: 0 | Plant response rating, Soybean [13, 25]: 15 | Soybean plant response rating [13, 26]: 80
